In patent US9943569B2, “Method for preventing or reducing postoperative pulmonary complications” (OSAKA UNIVERSITY, priority 2015, dated 2018):

Experiments:
interleukin-6 (IL-6) = assay: Postoperative change in serum IL-6 (enzyme immunoassay); assay type: in vivo, human; conditions: n=20
Description: (§1) The primary endpoint of this study was SIRS duration. The secondary endpoints were postoperative complications, serum C-reactive protein (CRP) and IL-6 levels, time required to attain a positive nitrogen balance, and changes in body weight and body composition. Postoperative complications were defined as adverse events caused by surgery. Patients received an intravenous continuous infusion of ghrelin (0.5 μg/kg/h) or placebo (pure saline) for 5 days postoperatively. Ghrelin was diluted to a final volume of 48 mL with saline, and the solution was administered at a rate of 2 mL/h by using an infusion pump through a central venous catheter inserted into the right subclavian vein. The same amount of ghrelin was administered via intravenous infusion during the 5 days of treatment; the dose was calculated on the basis of body weight on the day before surgery. Patients in the placebo group received the corresponding infusion containing pure saline using same procedure.
(§2) Blood sampling was performed at the following 7 time points: before surgery; 2 hours after initiation of surgery (during thoracotomy); 4 hours after initiation of surgery (during laparotomy); and on PODs 1, 3, 7, and 10. Complete blood count was performed every day for at least 10 PODs. If the leukocyte count was not within the normal range on POD10, complete blood counts were performed daily until it was within the normal range for 3 consecutive days. SIRS was diagnosed according to the criteria proposed by the American College of Chest Physicians/Society of Critical Care Medicine Consensus Conference^32 and when 2 or more of the following criteria were present: (1) body temperature less than 36° C. or more than 38° C.; (2) heart rate more than 90 beats per minute; (3) tachypnea with more than 20 breaths per minute or an arterial partial pressure of carbon dioxide less than 32 mm Hg; and (4) white blood cell count less than 4000 cells/mm^3, >12,000 cells/mm^3, or an immature (band) form more than 10%. Postoperative complications were evaluated according to the Clavien-Dindo classification.^33 Grade I required no treatment, grade II required medical therapy, grade Ma required interventions but not general anesthesia, grade Mb required general anesthesia, grade IV represented life-threatening states that required intensive care, and grade V represented death.
(§3) Sampled blood was immediately transferred into a chilled glass tube containing disodium ethylenediaminetetraacetic acid for plasma sampling or a separating agent for serum sampling, and the samples were then centrifuged at 4° C. Plasma samples were mixed with a 10% volume of 1 N HCl and stored at −80° C. Serum samples were directly stored at −80° C. Sandwich-type enzyme immunoassay kits were used to measure levels of plasma active ghrelin, des-acyl ghrelin, and serum IL-6 according to the manufacturers' protocols (for ghrelin: Mitsubishi Kagaku Iatron, Inc, Tokyo, Japan; for IL-6: R&D Systems, Minneapolis, Minn.). Total plasma ghrelin levels were calculated as the active ghrelin level plus the des-acyl ghrelin level.^34 An Access 2 kit, a chemiluminescent enzyme immunoassay (Beckman Coulter, Inc, Brea, Calif.), was used to measure serum GH levels.

[1] = test system: patients undergoing esophagectomy; assay: SIRS duration after esophagectomy, randomized placebo-controlled phase II study; assay type: in vivo, human; conditions: ghrelin 0.5 μg/kg/h continuous i.v. infusion for 5 days, n=20
Description: Forty patients undergoing esophagectomy were randomly assigned to either the ghrelin group (n=20), which received continuous infusion of ghrelin (0.5 μg/kg/h) for 5 days, or the placebo group (n=20), which received pure saline for 5 days. The primary endpoint was SIRS duration. The secondary endpoints were the incidence of postoperative complications, time of a negative nitrogen balance, changes in body weight and composition, and levels of inflammatory markers, including C-reactive protein (CRP) and interleukin-6 (IL-6).
Forty patients with primary esophageal cancer who underwent esophagectomy were selected to participate in a randomized, placebo-controlled phase II study. The patients were selected based on the following eligibility criteria: (1) thoracic esophageal cancer treated by performing radical esophagectomy with gastric tube reconstruction; (2) age 20 to 75 years; (3) adequate functioning of major organs; (4) no other active malignancies; and (5) provision of written informed consent. […] The study was performed in a double-blind manner, and an independent researcher assessed outcomes.
The primary endpoint of this study was SIRS duration. […] The same amount of ghrelin was administered via intravenous infusion during the 5 days of treatment; the dose was calculated on the basis of body weight on the day before surgery. […]

[2] = test system: patients undergoing esophagectomy; assay: Time required to attain positive nitrogen balance; assay type: in vivo, human; conditions: ghrelin 0.5 μg/kg/h continuous i.v. for 5 days, n=20
Description: as §1

[3] = test system: patients undergoing esophagectomy; assay: Laboratory tests, nutrition status and hormone assays, preoperative and POD7; assay type: in vivo, human
Description: as §1, §2, §3

GH secretion = assay: Mode of ghrelin administration and GH secretion (unpublished data); assay type: in vivo; conditions: continuous infusion vs periodic injection

`CCCCCCCC(=O)OC[C@H](NC(=O)[C@H](CO)NC(=O)CN)C(=O)N[C@@H](Cc1ccccc1)C(=O)N[C@@H](CC(C)C)C(=O)N[C@@H](CO)C(=O)N1CCC[C@H]1C(=O)N[C@@H](CCC(=O)O)C(=O)N[C@@H](Cc1cnc[nH]1)C(=O)N[C@@H](CCC(N)=O)C(=O)N[C@@H](CCCNC(=N)N)C(=O)N[C@H](C(=O)N[C@@H](CCC(N)=O)C(=O)N[C@@H](CCC(N)=O)C(=O)N[C@@H](CCCNC(=N)N)C(=O)N[C@@H](CCCCN)C(=O)N[C@@H](CCC(=O)O)C(=O)N[C@@H](CO)C(=O)N[C@@H](CCCCN)C(=O)N[C@@H](CCCCN)C(=O)N1CCC[C@H]1C(=O)N1CCC[C@H]1C(=O)N[C@@H](C)C(=O)N[C@@H](CCCCN)C(=O)N[C@@H](CC(C)C)C(=O)N[C@@H](CCC(N)=O)C(=O)N1CCC[C@H]1C(=O)N[C@@H](CCCNC(=N)N)C(=O)O)C(C)C` [ghrelin] was tested, and the “Serum IL-6” value (interleukin-6 (IL-6); POD1) was 95.2 ± 131.0 pg/mL, the “Serum IL-6” value (interleukin-6 (IL-6); POD3) was 43.1 ± 47.1 pg/mL and the “Serum IL-6” value (interleukin-6 (IL-6); POD3, listed as Ghrelin) was 43.1 ± 47.1 pg/mL. The “Serum IL-6” value (interleukin-6 (IL-6); POD7) was 15.3 ± 11.3 pg/mL, the “Serum IL-6” value (interleukin-6 (IL-6); POD10) was 14.2 ± 17.9 pg/mL and the “Serum IL-6” value (interleukin-6 (IL-6); Preoperative (baseline)) was 4.3 ± 4.8 pg/mL. The SIRS duration [1] was 3.0 ± 2.9 days, the “time required to attain positive nitrogen balance” value [2] was 2.6 ± 1.6 days and the Alanine aminotransferase ([3]; Postoperative (POD7)) was 40.6 ± 24.6 IU/L. The Albumin ([3]; Postoperative (POD7)) was 2.99 ± 0.45 g/dL, the Asparate aminotransferase ([3]; Postoperative (POD7)) was 34.0 ± 15.9 IU/L and the Blood urea nitrogen ([3]; Postoperative (POD7)) was 19.3 ± 6.8 mg/dL. The Choline esterase ([3]; Postoperative (POD7)) was 154.1 ± 50.7 IU/L, the Creatinine ([3]; Postoperative (POD7)) was 0.77 ± 0.19 and the Growth hormone ([3]; Postoperative (POD7)) was 1.08 ± 1.16 ng/mL. The Hemoglobin ([3]; Postoperative (POD7)) was 10.1 ± 1.3 g/dL, the Leukocytes ([3]; Postoperative (POD7)) was 9068 ± 2633 /mm and the Lymphocytes ([3]; Postoperative (POD7)) was 1380 ± 495 /mm. It also gave a Retinol binding protein ([3]; Postoperative (POD7)) of 3.63 ± 1.56 mg/dL, a Total bilirubin ([3]; Postoperative (POD7)) of 1.25 ± 0.80 mg/dL and a Total protein ([3]; Postoperative (POD7)) of 5.66 ± 0.70 g/dL. The Transferrin ([3]; Postoperative (POD7)) was 146.4 ± 35.3 mg/dL, the Transthyretin ([3]; Postoperative (POD7)) was 20.1 ± 6.7 mg/dL and the Alanine aminotransferase ([3]; Preoperative (baseline)) was 18.3 ± 14.1 IU/L. It also gave an Albumin ([3]; Preoperative (baseline)) of 3.78 ± 0.50 g/dL, an Asparate aminotransferase ([3]; Preoperative (baseline)) of 20.2 ± 7.2 IU/L and a Blood urea nitrogen ([3]; Preoperative (baseline)) of 15.1 ± 4.7 mg/dL. The Choline esterase ([3]; Preoperative (baseline)) was 263.5 ± 83.8 IU/L, the Creatinine ([3]; Preoperative (baseline)) was 0.88 ± 0.21 and the Growth hormone ([3]; Preoperative (baseline)) was 0.51 ± 0.54 ng/mL. The Hemoglobin ([3]; Preoperative (baseline)) was 11.3 ± 1.5 g/dL, the Leukocytes ([3]; Preoperative (baseline)) was 5472 ± 1970 /mm and the Lymphocytes ([3]; Preoperative (baseline)) was 1644 ± 585 /mm. The Retinol binding protein ([3]; Preoperative (baseline)) was 4.86 ± 1.71 mg/dL, the Total bilirubin ([3]; Preoperative (baseline)) was 0.58 ± 0.20 mg/dL and the Total protein ([3]; Preoperative (baseline)) was 6.44 ± 0.59 g/dL. The Transferrin ([3]; Preoperative (baseline)) was 198.1 ± 30.8 mg/dL, the Transthyretin ([3]; Preoperative (baseline)) was 28.8 ± 9.1 mg/dL and the “GH secretion by mode of ghrelin administration” value (GH secretion) was “continuous infusion was better than periodic injection”.
